≈ marks a conversion by molar mass, not a printed value. Calls of active or inactive are those of the source. The rule behind the calls is not given here. Where a SMILES comes first, the peptide text is derived from it.
Legend:
Bacillus subtilis = test: Antibacterial activity against Bacillus subtilis ATCC 23857 incubated for 18 hrs by CLSI based broth dilution method; format: functional
Pseudomonas aeruginosa [1] = test: Antibacterial activity against gentamicin-resistant Pseudomonas aeruginosa ATCC 27853 incubated for 18 hrs by CLSI based broth dilution method; format: functional
Pseudomonas aeruginosa [2] = test: Antibacterial activity against gentamicin-resistant Pseudomonas aeruginosa ATCC 27853 incubated for 18 hrs in presence of EDTA by CLSI based broth dilution method; format: functional, organism-based
Pseudomonas aeruginosa [3] = test: Antibacterial activity against rifampin-resistant Pseudomonas aeruginosa ATCC 27853 incubated for 18 hrs by CLSI based broth dilution method; format: functional
Pseudomonas aeruginosa [4] = test: Antibacterial activity against Pseudomonas aeruginosa ATCC 27853 incubated for 18 hrs by CLSI based broth dilution method; format: functional
Enterococcus faecalis = test: Antibacterial activity against Enterococcus faecalis ATCC 29212 incubated for 18 hrs by CLSI based broth dilution method; format: functional
Staphylococcus aureus [5] = test: Antibacterial activity against Staphylococcus aureus ATCC 25923 incubated for 18 hrs by CLSI based broth dilution method; format: functional
[6] = system: Staphylococcus epidermidis; test: Antibacterial activity against Staphylococcus epidermidis ATCC 12228 incubated for 18 hrs by CLSI based broth dilution method; format: functional
Acinetobacter baumannii = test: Antibacterial activity against Acinetobacter baumannii ATCC 19606 incubated for 18 hrs by CLSI based broth dilution method; format: functional; conditions: ATCC 19606 = CIP 70.34 = JCM 6841
Escherichia coli [7] = test: Antibacterial activity against Escherichia coli ATCC 25922 incubated for 18 hrs by CLSI based broth dilution method; format: functional
Klebsiella pneumoniae [8] = test: Antibacterial activity against Klebsiella pneumoniae ATCC 700603 incubated for 18 hrs by CLSI based broth dilution method; format: functional
Klebsiella pneumoniae [9] = test: Bactericidal activity against Klebsiella pneumoniae 700603 at 2MIC by time-kill assay relative to control; format: functional; conditions: 2M, TDE = time-dependent effect
Staphylococcus aureus [10] = test: Bactericidal activity against Staphylococcus aureus ATCC 25923 at 2MIC by time-kill assay; format: functional, organism-based; conditions: time 24.0 hrs, TDE = time-dependent effect
[11] = Selectivity ratio of MHC10 for BALB/C mouse erythrocytes to MIC for fungi; format: toxicity
Bacteria [12] = test: Antibacterial activity against bacteria incubated for 18 hrs by CLSI based broth dilution method; format: functional
[13] = Selectivity ratio of MHC10 for BALB/C mouse erythrocytes to MIC for gram positive bacteria; format: toxicity
Bacteria [14] = test: Antibacterial activity against Gram-positive bacteria incubated for 18 hrs by CLSI based broth dilution method; format: functional
Escherichia coli [15] = test: Antibiofilm activity against Escherichia coli ATCC 25922 at 4 times MIC incubated for 24 hrs by crystal violet staining based assay; format: functional, organism-based
Klebsiella pneumoniae [16] = test: Antibacterial activity against Klebsiella pneumoniae ATCC 700603 incubated with 0.02 ug/ml chymotrypsin for 6 hrs followed by bacterial addition and measured after 18 hrs by CLSI based broth dilution method; format: functional, organism-based; conditions: dose 0.02 µg/ml, time 23.0 hrs
Klebsiella pneumoniae [17] = test: Antibiofilm activity against Klebsiella pneumoniae ATCC 700603 at 2 to 4 times MIC incubated for 24 hrs by crystal violet staining based assay; format: functional, organism-based
Staphylococcus aureus [18] = test: Antibacterial activity against Staphylococcus aureus ATCC 25923 incubated with 0.02 ug/ml chymotrypsin for 6 hrs followed by bacterial addition and measured after 18 hrs by CLSI based broth dilution method; format: functional, organism-based; conditions: dose 0.02 µg/ml, time 23.0 hrs
Klebsiella pneumoniae [19] = test: Antibacterial activity against Klebsiella pneumoniae ATCC 700603 incubated with 0.02 ug/ml trypsin for 6 hrs followed by bacterial addition and measured after 18 hrs by CLSI based broth dilution method; format: functional, organism-based; conditions: dose 0.02 µg/ml, time 23.0 hrs
Fungi = test: Antibacterial activity against fungi incubated for 18 hrs by CLSI based broth dilution method; format: functional
Erythrocyte = test: Hemolytic activity in BALB/C mouse erythrocytes incubated for 1 hr by absorbance method; format: ADME, cell-based
Staphylococcus aureus [20] = test: Antibacterial activity against Staphylococcus aureus ATCC 25923 incubated with 0.02 ug/ml trypsin for 6 hrs followed by bacterial addition and measured after 18 hrs by CLSI based broth dilution method; format: functional, organism-based; conditions: dose 0.02 µg/ml, time 23.0 hrs
[21] = Selectivity ratio of MHC10 for BALB/C mouse erythrocytes to MIC for bacteria; format: toxicity
Staphylococcus aureus [22] = test: Antibacterial activity against Staphylococcus aureus ATCC 25923 at 0.5 to 1 times MIC incubated for 24 hrs by crystal violet staining based assay; format: functional, organism-based
[23] = Selectivity ratio of MHC10 for BALB/C mouse erythrocytes to MIC for gram-negative bacteria; format: toxicity
Bacteria [24] = test: Antibacterial activity against Gram-negative bacteria incubated for 18 hrs by CLSI based broth dilution method; format: functional
Escherichia coli [25] = test: Synergistic antibacterial activity against Escherichia coli ATCC 25922 at 2 times MIC incubated for 18 to 24 hrs in presence of 2 times MIC of polymyxin B by broth microdilution assay based checkerboard assay; format: functional; conditions: time 18-24 hrs
Pseudomonas aeruginosa [26] = test: Synergistic antibacterial activity against Pseudomonas aeruginosa ATCC 27853 at 2 times MIC incubated for 18 to 24 hrs in presence of 2 times MIC of rifampicin by broth microdilution assay based checkerboard assay; format: functional; conditions: time 18-24 hrs
Pseudomonas aeruginosa [27] = test: Synergistic antibacterial activity against Pseudomonas aeruginosa ATCC 27853 at 2 times MIC incubated for 18 to 24 hrs in presence of 2 times MIC of polymyxin B by broth microdilution assay based checkerboard assay; format: functional; conditions: time 18-24 hrs
Escherichia coli [28] = test: Synergistic antibacterial activity against Escherichia coli ATCC 25922 at 2 times MIC incubated for 18 to 24 hrs in presence of 2 times MIC of gentamycin by broth microdilution assay based checkerboard assay; format: functional; conditions: time 18-24 hrs
Klebsiella pneumoniae [29] = test: Synergistic antibacterial activity against Klebsiella pneumoniae ATCC 700603 at 2 times MIC incubated for 18 to 24 hrs in presence of 2 times MIC of gentamycin by broth microdilution assay based checkerboard assay; format: functional; conditions: time 18-24 hrs
[30] = Cytotoxicity against human glomerular mesangial cells incubated for 12 hrs by MTT assay; format: cell-based; conditions: Glomerular mesangial cell
Klebsiella pneumoniae [31] = test: Synergistic antibacterial activity against Klebsiella pneumoniae ATCC 700603 at 2 times MIC incubated for 18 to 24 hrs in presence of 2 times MIC of rifampicin by broth microdilution assay based checkerboard assay; format: functional; conditions: time 18-24 hrs
Klebsiella pneumoniae [32] = test: Synergistic antibacterial activity against Klebsiella pneumoniae ATCC 700603 at 2 times MIC incubated for 18 to 24 hrs in presence of 2 times MIC of polymyxin B by broth microdilution assay based checkerboard assay; format: functional; conditions: time 18-24 hrs
Escherichia coli [33] = test: Synergistic antibacterial activity against Escherichia coli ATCC 25922 at 2 times MIC incubated for 18 to 24 hrs in presence of 2 times MIC of rifampicin by broth microdilution assay based checkerboard assay; format: functional; conditions: time 18-24 hrs

| Compound | MIC (Bacillus subtilis) [µM] | MIC (Pseudomonas aeruginosa [4]) [µM] | MIC (Enterococcus faecalis) [µM] | MIC (Staphylococcus aureus [5]) [µM] | MIC [6] [µM] | MIC (Acinetobacter baumannii) [µM] | MIC (Escherichia coli [7]) [µM] | MIC (Klebsiella pneumoniae [8]) [µM] | selectivity ratio [11] | MIC (Bacteria [12]) [µM] | selectivity ratio at 18 h [13] | MIC (Bacteria [14]) [µM] | MIC (Fungi) [µM] | MHC10 (Erythrocyte) [µM] | selectivity ratio [21] | selectivity ratio [23] | MIC (Bacteria [24]) [µM] | FIC (Pseudomonas aeruginosa [26]) | FIC (Pseudomonas aeruginosa [27]) | IC50 [30] [µM] | other results |
| --- | --- | --- | --- | --- | --- | --- | --- | --- | --- | --- | --- | --- | --- | --- | --- | --- | --- | --- | --- | --- | --- |
| GENTAMICIN | < 1 | 4 | 4 | < 1 | < 1 | < 1 | 4 | 16 |  |  |  |  |  |  |  |  |  |  |  |  | MIC (Pseudomonas aeruginosa [1]): 64 µM; MIC (Pseudomonas aeruginosa [2]): 8 µM; MIC (Pseudomonas aeruginosa [3]): 0.5 µM |
| CN[C@H](CC(C)C)C(=O)N[C@H]1C(=O)N[C@@H](CC(N)=O)C(=O)N[C@H]2C(=O)N[C@H]3C(=O)N[C@H](C(=O)N[C@H](C(=O)O)c4cc(O)cc(O)c4-c4cc3ccc4O)[C@H](O)c3ccc(c(Cl)c3)Oc3cc2cc(c3O[C@@H]2O[C@H](CO)[C@@H](O)[C@H](O)[C@H]2O[C@H]2C[C@](C)(N)[C@H](O)[C@H](C)O2)Oc2ccc(cc2Cl)[C@H]1O [VANCOMYCIN] | < 1 | 64 (≈ 92.8 µg/mL) | < 1 | < 1 | < 1 | < 1 | 64 (≈ 92.8 µg/mL) | ≥ 128 |  |  |  |  |  |  |  |  |  |  |  |  | Activity (Klebsiella pneumoniae [9]): Tde; Activity (Staphylococcus aureus [10]): Tde |
| CC[C@H](C)[C@H](NC(=O)CN)C(=O)NCC(=O)N[C@@H](C)C(=O)N[C@H](C(=O)N[C@@H](CC(C)C)C(=O)N[C@@H](CCCCN)C(=O)N[C@H](C(=O)N[C@@H](CC(C)C)C(=O)N[C@H](C(=O)N[C@H](C(=O)NCC(=O)N[C@@H](CC(C)C)C(=O)N1CCC[C@H]1C(=O)N[C@@H](C)C(=O)N[C@@H](CC(C)C)C(=O)N[C@H](C(=O)N[C@@H](CO)C(=O)N[C@@H](Cc1c[nH]c2ccccc12)C(=O)N[C@H](C(=O)N[C@@H](CCCCN)C(=O)N[C@@H](CCCNC(=N)N)C(=O)N[C@@H](CCCCN)C(=O)N[C@@H](CCCNC(=N)N)C(=O)N[C@@H](CCC(N)=O)C(=O)N[C@@H](CCC(N)=O)C(N)=O)[C@@H](C)CC)[C@@H](C)CC)[C@@H](C)O)[C@@H](C)O)C(C)C)C(C)C [MELITTIN] |  |  | 4 (≈ 11.4 µg/mL) |  |  | 2 (≈ 5.69 µg/mL) |  | 16 (≈ 45.5 µg/mL) | 57 | 4 (≈ 11.4 µg/mL) | 0.95 | 2.38 (≈ 6.77 µg/mL) | 4 (≈ 11.4 µg/mL) | 2.26 | 57 | 0.34 | 6.73 (≈ 19.2 µg/mL) |  |  |  | Activity (Escherichia coli [15]): Active; Activity (Klebsiella pneumoniae [16]): inactive; Activity (Klebsiella pneumoniae [17]): Active; Activity (Staphylococcus aureus [18]): inactive; Activity (Klebsiella pneumoniae [19]): inactive; Activity (Staphylococcus aureus [20]): inactive; Activity (Staphylococcus aureus [22]): Active |
| CC(C)C[C@H](NC(=O)CN)C(=O)N[C@@H](Cc1c[nH]c2ccccc12)C(=O)N[C@@H](CCCCN)C(=O)N[C@@H](CCCNC(=N)N)C(=O)N[C@@H](Cc1c[nH]c2ccccc12)C(=O)N[C@@H](CCCCN)C(=O)N[C@@H](CCCCN)C(=O)N[C@@H](Cc1ccccc1)C(=O)N[C@@H](Cc1c[nH]c2ccccc12)C(N)=O (H-GLWKRWKKFW-NH2) | 8 (≈ 11.5 µg/mL) | 8 (≈ 11.5 µg/mL) | 32 (≈ 45.9 µg/mL) | 8 (≈ 11.5 µg/mL) | 16 (≈ 22.9 µg/mL) | 16 (≈ 22.9 µg/mL) | 8 (≈ 11.5 µg/mL) | 8 (≈ 11.5 µg/mL) | 8.06 | 10.4 (≈ 14.9 µg/mL) | 6.19 | 13.5 (≈ 19.4 µg/mL) | 10.4 (≈ 14.9 µg/mL) | 83.63 | 8.06 | 10.4 | 8 (≈ 11.5 µg/mL) | 0.3125 | 0.25 | 39 | FIC (Escherichia coli [25]): 0.3125; FIC (Escherichia coli [28]): 0.5; FIC (Klebsiella pneumoniae [29]): 0.75; FIC (Klebsiella pneumoniae [31]): 0.5625; FIC (Klebsiella pneumoniae [32]): 0.5625; FIC (Escherichia coli [33]): 0.5 |
| CC[C@H](C)[C@H](NC(=O)[C@H](CCCNC(=N)N)NC(=O)[C@H](CCCCN)NC(=O)[C@H](Cc1c[nH]c2ccccc12)NC(=O)[C@H](Cc1c[nH]c2ccccc12)NC(=O)CN)C(=O)N[C@@H](CCCCN)C(=O)N[C@H](C(=O)N[C@@H](Cc1c[nH]c2ccccc12)C(=O)N[C@@H](Cc1c[nH]c2ccccc12)C(N)=O)[C@@H](C)O (H-GWWKRIKTWW-NH2) | 8 (≈ 11.6 µg/mL) | 8 (≈ 11.6 µg/mL) | 16 (≈ 23.1 µg/mL) | 4 (≈ 5.78 µg/mL) | 8 (≈ 11.6 µg/mL) | 8 (≈ 11.6 µg/mL) | 8 (≈ 11.6 µg/mL) | 8 (≈ 11.6 µg/mL) | 14 | 7.34 (≈ 10.6 µg/mL) | 12.8 | 8 (≈ 11.6 µg/mL) | 7.34 (≈ 10.6 µg/mL) | 102.54 | 14 | 15.3 | 6.7 (≈ 9.69 µg/mL) | 0.5 | 0.5 | 25.2 |  |

From ChEMBL document CHEMBL4823282, “Novel Broad-Spectrum Antimicrobial Peptide Derived from Anoplin and Its Activity on Bacterial Pneumonia in Mice” (J Med Chem, 2021)
